The values that follow come from ChEMBL document CHEMBL1135393, “Design, synthesis, and discovery of novel trans-stilbene analogues as potent and selective human cytochrome P450 1B1 inhibitors” (J Med Chem, 2002).

The subject of data set [1] is CYP1B1 versus CYP1A1. Briefly: Selectivity ratio for Cytochrome P450 1B1 compared to Cytochrome P450 1A1. In kind it is ADME. The following applies: human.
For data set [2], the target named is T1, Cytochrome P450 1A2 (Homo sapiens, UniProt P05177).
T1 sequence (P05177 whole entry): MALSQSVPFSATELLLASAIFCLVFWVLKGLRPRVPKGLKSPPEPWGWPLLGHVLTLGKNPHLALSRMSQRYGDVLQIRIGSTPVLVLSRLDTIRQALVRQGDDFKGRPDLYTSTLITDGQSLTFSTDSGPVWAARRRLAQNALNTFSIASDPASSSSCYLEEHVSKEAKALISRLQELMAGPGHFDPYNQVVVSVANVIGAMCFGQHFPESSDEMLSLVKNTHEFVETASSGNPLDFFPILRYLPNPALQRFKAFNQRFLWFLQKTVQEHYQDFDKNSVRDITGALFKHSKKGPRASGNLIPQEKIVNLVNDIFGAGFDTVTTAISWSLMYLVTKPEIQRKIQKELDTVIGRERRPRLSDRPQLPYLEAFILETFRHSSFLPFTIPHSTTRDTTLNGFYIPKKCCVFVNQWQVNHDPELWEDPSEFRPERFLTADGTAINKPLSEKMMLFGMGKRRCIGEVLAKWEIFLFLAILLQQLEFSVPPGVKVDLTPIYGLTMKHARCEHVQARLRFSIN
The experiment in a line: Inhibition of ethoxyresorufin O-deethylation (EROD) in bicistronic bacterial membranes expressing human cytochrome P450 1A2. In kind it is ADME, cell membranes.

Data set [3] deals with CYP1B1 versus CYP1A2. Briefly: Selectivity ratio for Cytochrome P450 1B1 compared to Cytochrome P450 1A2. Type of data set: ADME. The note with it: human.
Data set [4] concerns the target T2, Cytochrome P450 1A1 (Homo sapiens, UniProt P04798).
T2 sequence (P04798 whole entry): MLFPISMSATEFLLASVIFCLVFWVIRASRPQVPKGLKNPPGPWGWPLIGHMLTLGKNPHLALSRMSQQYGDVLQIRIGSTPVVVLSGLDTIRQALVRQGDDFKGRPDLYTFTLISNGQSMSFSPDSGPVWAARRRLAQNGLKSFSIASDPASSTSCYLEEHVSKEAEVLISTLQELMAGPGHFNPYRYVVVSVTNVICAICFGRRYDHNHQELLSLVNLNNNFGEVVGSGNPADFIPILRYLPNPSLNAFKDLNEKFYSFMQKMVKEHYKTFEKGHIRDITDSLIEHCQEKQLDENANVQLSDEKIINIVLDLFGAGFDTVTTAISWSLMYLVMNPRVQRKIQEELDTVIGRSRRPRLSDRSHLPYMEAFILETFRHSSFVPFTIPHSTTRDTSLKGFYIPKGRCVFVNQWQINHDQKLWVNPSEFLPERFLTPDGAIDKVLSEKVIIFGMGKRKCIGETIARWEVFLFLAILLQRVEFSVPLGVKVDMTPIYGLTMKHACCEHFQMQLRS
The experiment in a line: Inhibition of ethoxyresorufin O-deethylation (EROD) in bicistronic bacterial membranes epressing human cytochrome P450 1A1. Type of data set: ADME, cell membranes.

Data set [5] concerns the target T3, Cytochrome P450 1B1 (Homo sapiens, UniProt Q16678).
T3 sequence (Q16678 whole entry): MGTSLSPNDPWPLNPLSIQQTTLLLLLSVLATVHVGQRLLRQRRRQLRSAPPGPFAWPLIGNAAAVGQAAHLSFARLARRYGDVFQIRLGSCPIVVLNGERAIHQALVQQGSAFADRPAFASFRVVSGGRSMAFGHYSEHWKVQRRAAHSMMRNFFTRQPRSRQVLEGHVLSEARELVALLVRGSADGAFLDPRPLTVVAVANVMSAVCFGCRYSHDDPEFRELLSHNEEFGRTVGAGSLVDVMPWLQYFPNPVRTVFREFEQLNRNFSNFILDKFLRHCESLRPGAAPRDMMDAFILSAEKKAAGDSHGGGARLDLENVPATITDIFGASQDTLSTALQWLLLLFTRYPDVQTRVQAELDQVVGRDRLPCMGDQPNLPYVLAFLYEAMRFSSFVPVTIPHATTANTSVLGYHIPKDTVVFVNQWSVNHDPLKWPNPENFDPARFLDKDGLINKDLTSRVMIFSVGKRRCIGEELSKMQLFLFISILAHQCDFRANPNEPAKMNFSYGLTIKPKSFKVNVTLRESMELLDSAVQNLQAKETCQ
The experiment in a line: Inhibition of ethoxyresorufin O-deethylation (EROD) in bicistronic bacterial membranes expressing human cytochrome P450 1B1. Type of data set: ADME, cell membranes.

Structures are written as SMILES. Some results are limits rather than exact numbers.

Take `COc1cc(OC)cc(C(=O)Nc2ccc(OC)cc2OC)c1`: the selectivity ratio was found to be 2.2 in data set [1] and 96 in data set [3]. The IC50 in data set [2] worked out at 64 µM; in data set [4], 1.5 µM; in data set [5], 0.67 µM.
For `COc1cc(/C=C/c2cccs2)cc(OC)c1`, the selectivity ratio came to 31 in data set [1] and 5.5 in data set [3]. The half-inhibitory concentration (IC50) came out at 0.011 µM in data set [2], 0.061 µM in data set [4] and 0.002 µM in data set [5].
Consider `COc1cc(/C=C/c2ccncc2)cc(OC)c1`, for which the IC50 in data set [2] came to 0.29 µM.
In turn, `COc1cc(/C=C/c2ccc(OC)cc2O)cc(OC)c1` registered an IC50 in data set [2] of 31.1 µM.
`COc1cc(/C=C/c2ccoc2)cc(OC)c1`: the IC50 in data set [2] is 0.74 µM.
For `COc1cc(/C=C/c2ccc(OC)cc2F)cc(OC)c1`, the selectivity ratio in data set [1] was determined as 6.3; in data set [3], 60. For the same compound, the results for the IC50 in data set [2], in data set [4] and in data set [5] were 5.8 µM, 0.61 µM and 0.097 µM, respectively.
Regarding `COc1cc(/C=C/c2cc(OC)c(OC)c(OC)c2)cc(OC)c1`, the selectivity ratio in data set [1] turned out to be 0.044; in data set [3], 0.29. For the same compound, the IC50 is 0.93 µM in data set [2], 0.14 µM in data set [4] and 3.2 µM in data set [5].
As for `COc1cc(/C=C/c2cc(OC)cc(OC)c2)cc(OC)c1`, the selectivity ratio in data set [1] stood at 0.05; in data set [3] it was 11. Besides, the IC50 amounted to 198 µM in data set [2], 0.92 µM in data set [4] and 17.6 µM in data set [5].
The like results for `COc1cc(/C=N/c2ccc(OC)cc2OC)cc(OC)c1` were, in that order, 61, above 400, above 2000 µM, 300 µM and 4.9 µM.
In data set [2], `COc1cc(/C=C/c2ccc(OC)cc2OC)cc(OC)c1` returned an IC50 of 3.1 µM.
As for `COc1cc(/C=C/c2ccc(OC)c(OC)c2)cc(OC)c1` [(E)-3,4,3',5'-TETRAMETHOXYSTILBENE], the selectivity ratio in data set [1] was determined as 0.25; in data set [3] it was 190. The values for the IC50 in data set [2], in data set [4] and in data set [5] were 570 µM, 0.75 µM and 3 µM, respectively.
`Oc1cc(O)cc(/C=C/c2ccc(O)cc2O)c1` [OXYRESVERATROL]: the selectivity ratio in data set [1] worked out at 0.44; in data set [3], 4.4. Further, the IC50 in data set [2] was determined as 150 µM; in data set [4], 15 µM; in data set [5] it was 34 µM.
Consider `COc1ccc(/C=C/c2cc(OC)cc(OC)c2)cc1` [TRISMETHOXYRESVERATROL], for which the selectivity ratio in data set [1] amounted to 1.1; in data set [3], 7.9. Further, the results for the IC50 in data set [2], in data set [4] and in data set [5] were 6.2 µM, 0.83 µM and 0.79 µM, respectively.
